Measured values published in ChEMBL document CHEMBL1201862, “PubChem BioAssay data set” (2004).
The source made the active and inactive calls.

Key:
cells [1] = assay type: functional, cell-based
cells [2] = assay type: functional, cell-based; remark: listed apart in the source
A549 = assay: A549 cell toxicity, dose response, cytotoxicity control, plate reader, cherry-pick samples (AID 687028); assay type: functional, cell-based; conditions: Homo sapiens
Paired box protein Pax-8 = Paired box protein Pax-8 (Homo sapiens, UniProt Q06710); assay: inhibitors of PAX8-driven TPO luciferase reporter, dose response, RMG-I cells, cherry-pick (AID 687027); assay type: functional, cell-based;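 also: luciferase reporter driven by Pax8 target thyroperoxidase promoter measured by SteadyGlo luminescence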
[3] = cytotoxicity in OVCAR8 ovarian cancer cells, dose response, PAX8 project, cell-based, plate reader, dry powder samples (AID 743197); assay type: functional; conditions: OVCAR-8
[4] = P. falciparum Dd2 growth inhibitors, dose response, SYBR Green, dry powder samples, set 9 (AID 1159568); assay type: functional, cell-based
Galanin receptor type 3 = Galanin receptor type 3 (Homo sapiens, UniProt O60755); assay: Fluorescence-based cell-based primary high throughput dose response assay to identify antagonists of the Galanin Receptor 3 (GalR3).; assay type: functional
cells [5] = assay type: functional, cell-based; conditions: HEK-CNG
[6] = biological target: T1, Endoribonuclease toxin MazF (Escherichia coli K-12, UniProt P0AE70); assay: MazF toxin RNase activators, dose response, biochemical, fluorescence, single-stranded RNA substrate, uHTS hits (AID 588481); assay type: functional
T1 sequence (P0AE70 whole entry): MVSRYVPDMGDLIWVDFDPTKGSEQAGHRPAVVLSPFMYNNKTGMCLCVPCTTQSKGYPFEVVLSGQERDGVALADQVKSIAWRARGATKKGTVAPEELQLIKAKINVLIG

[7] = biological target: T1, Endoribonuclease toxin MazF; assay: fluorescent RNA oligo signal without MazF, dose response, counter-screen for MazEF activator project, biochemical, fluorescence, single-stranded RNase substrate (AID 588502); assay type: functional
[8] = biological target: T2, Sentrin-specific protease 8 (Homo sapiens, UniProt Q96LD8); assay type: functional
T2 sequence (Q96LD8 whole entry): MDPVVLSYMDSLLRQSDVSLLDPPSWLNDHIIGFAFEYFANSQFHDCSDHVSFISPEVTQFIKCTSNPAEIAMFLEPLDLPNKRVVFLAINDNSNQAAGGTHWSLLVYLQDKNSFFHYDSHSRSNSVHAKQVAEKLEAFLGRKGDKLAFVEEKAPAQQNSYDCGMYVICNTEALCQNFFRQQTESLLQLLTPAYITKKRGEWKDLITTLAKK

[9] = biological target: T2, Sentrin-specific protease 8; assay type: functional; remark: listed apart in the source
Caspase-6 = biological target: T3, Caspase-6 (Homo sapiens, UniProt P55212); assay: human caspase-6 inhibitors, dose response, biochemical, VEID-R110 fluorescence, cherry-pick (AID 720632)
T3 sequence (P55212 whole entry): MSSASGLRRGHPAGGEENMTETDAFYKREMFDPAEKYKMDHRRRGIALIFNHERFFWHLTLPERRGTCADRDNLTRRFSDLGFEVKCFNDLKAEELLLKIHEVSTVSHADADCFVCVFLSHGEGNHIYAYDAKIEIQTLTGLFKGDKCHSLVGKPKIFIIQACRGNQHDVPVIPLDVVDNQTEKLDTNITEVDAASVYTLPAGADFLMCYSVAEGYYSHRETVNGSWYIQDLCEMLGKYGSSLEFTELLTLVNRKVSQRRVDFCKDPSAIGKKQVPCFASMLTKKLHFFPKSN

CHO = assay: cytotoxicity in TLR9-MyD88 CHO cells, dose response, cytotoxicity control for TLR9-MyD88 binding inhibitor project, cell-based, luminescence (AID 588339); assay type: functional, hamster; conditions: Cricetulus griseus;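 also: CHO cells stably coexpressing TLR9 and MyD88 fusions from primary screen; compound exposure lasted 48 hours before viability readout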
Beta Lactamase = Beta Lactamase (Pseudomonas aeruginosa, UniProt Q932Y6); assay: beta-lactamase reporter inhibitor potency, dose response, artefact control for TLR9-MyD88 binding inhibitor project, BLA reporter cells, FRET fluorescence (AID 588341); assay type: cell-based;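 also: cell based assay in CHO-K1 cells stably expressing beta-lactamase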
[10] = biological target: Hepatocyte nuclear factor 4-alpha (Homo sapiens, UniProt P41235); assay type: functional, cell-based;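 also: biochemical luminescence-based dose-response counterscreen measuring inhibition of HNF4 dimerization, run alongside a screen for blockers of ABHD5–perilipin-5 interaction; split luciferase complementation of HNF4 fusion proteins in cell lysate measuring dimerization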
[11] = CEM21 lymphoblast cell cytotoxicity, dose response, cytotoxicity control for viral fusion inhibitor project, CellTiter-Glo luminescence, cherry-picked (AID 652042); assay type: functional, cell-based;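 also: potency for signal decrease meaning cytotoxicity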
[12] = ZM109 Env clade C HIV-1 fusion inhibitors, dose response, HeLa effector, CEM target cells, luciferase, cherry-pick (AID 652058); assay type: functional, cell-based
[13] = biological target: T4, RNA-binding protein pos-1 (Caenorhabditis elegans, UniProt G5EF15); assay: inhibitors of POS-1/mex-3 RNA binding, dose response, biochemical, fluorescence polarization (AID 1964);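 also: purified POS-1 fused to maltose binding protein made in E. coli; potency of compounds blocking POS-1 binding to fluorescent RNA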
T4 sequence (G5EF15 whole entry): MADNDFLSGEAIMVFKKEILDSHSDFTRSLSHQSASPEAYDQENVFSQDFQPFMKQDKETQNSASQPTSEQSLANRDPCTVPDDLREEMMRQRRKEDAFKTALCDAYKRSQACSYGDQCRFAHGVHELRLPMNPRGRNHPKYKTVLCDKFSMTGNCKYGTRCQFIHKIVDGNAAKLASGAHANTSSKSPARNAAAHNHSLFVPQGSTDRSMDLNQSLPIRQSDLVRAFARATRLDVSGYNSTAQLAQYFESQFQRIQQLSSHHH

[14] = biological target: T5, Zinc finger protein mex-5 (Caenorhabditis elegans, UniProt Q9XUB2); assay: MEX-5/TCR-2 RNA interaction inhibitors, dose response, biochemical, C. elegans, fluorescence polarization (AID 1960)
T5 sequence (Q9XUB2 whole entry): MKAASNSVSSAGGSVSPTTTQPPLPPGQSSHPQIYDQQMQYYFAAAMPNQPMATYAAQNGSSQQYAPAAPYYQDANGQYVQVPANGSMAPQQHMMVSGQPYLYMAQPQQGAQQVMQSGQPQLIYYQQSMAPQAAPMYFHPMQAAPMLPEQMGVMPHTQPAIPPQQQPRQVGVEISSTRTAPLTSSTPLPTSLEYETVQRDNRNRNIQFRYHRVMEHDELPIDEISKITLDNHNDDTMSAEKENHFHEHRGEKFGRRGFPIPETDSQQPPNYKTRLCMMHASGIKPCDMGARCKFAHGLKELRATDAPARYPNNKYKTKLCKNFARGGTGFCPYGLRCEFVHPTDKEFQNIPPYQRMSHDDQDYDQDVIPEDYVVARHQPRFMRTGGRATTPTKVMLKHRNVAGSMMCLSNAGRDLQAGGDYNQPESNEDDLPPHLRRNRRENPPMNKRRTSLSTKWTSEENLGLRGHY

[15] = biological target: T6, Corticotropin-releasing factor receptor 2/Corticotropin-releasing factor-binding protein (Homo sapiens, UniProt P24387+Q13324); assay: activators of CRF receptor 2 with binding protein – uHTS hits, confirmation (AID 602473); assay type: functional; conditions: read-out: EC50_Mean
T6 sequence (Q13324 whole entry): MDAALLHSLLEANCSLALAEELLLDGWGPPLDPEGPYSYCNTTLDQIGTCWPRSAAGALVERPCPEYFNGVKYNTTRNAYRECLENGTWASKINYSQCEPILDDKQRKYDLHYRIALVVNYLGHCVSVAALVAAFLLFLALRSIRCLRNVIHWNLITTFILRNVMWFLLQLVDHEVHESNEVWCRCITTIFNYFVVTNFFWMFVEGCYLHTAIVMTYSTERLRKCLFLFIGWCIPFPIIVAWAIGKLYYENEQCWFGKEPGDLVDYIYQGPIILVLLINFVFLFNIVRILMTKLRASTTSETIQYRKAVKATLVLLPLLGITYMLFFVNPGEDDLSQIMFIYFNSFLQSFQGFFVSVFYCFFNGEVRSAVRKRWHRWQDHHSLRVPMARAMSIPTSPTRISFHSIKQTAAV
T6 sequence (P24387 whole entry): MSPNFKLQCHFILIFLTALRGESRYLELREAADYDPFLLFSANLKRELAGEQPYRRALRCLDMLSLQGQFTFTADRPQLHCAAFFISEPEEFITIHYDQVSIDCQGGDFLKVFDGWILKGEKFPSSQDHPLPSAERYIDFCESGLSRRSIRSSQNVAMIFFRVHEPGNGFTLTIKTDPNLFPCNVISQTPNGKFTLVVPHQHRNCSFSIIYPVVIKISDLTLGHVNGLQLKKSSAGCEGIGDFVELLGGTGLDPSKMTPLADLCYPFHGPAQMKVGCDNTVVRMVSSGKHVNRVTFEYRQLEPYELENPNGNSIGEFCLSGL

Streptokinase A = biological target: T7, Streptokinase A (Streptococcus pyogenes serotype M1, UniProt P10520); assay: S. pyogenes streptokinase expression inhibitors, potency, dose response, plasminogen activation absorbance, OD405 (AID 1914); assay type: functional, Streptococcus pyogenes M1 GAS;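 also: secreted streptokinase activity via plasminogen activation per viability signal from cell pellet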
T7 sequence (P10520 whole entry): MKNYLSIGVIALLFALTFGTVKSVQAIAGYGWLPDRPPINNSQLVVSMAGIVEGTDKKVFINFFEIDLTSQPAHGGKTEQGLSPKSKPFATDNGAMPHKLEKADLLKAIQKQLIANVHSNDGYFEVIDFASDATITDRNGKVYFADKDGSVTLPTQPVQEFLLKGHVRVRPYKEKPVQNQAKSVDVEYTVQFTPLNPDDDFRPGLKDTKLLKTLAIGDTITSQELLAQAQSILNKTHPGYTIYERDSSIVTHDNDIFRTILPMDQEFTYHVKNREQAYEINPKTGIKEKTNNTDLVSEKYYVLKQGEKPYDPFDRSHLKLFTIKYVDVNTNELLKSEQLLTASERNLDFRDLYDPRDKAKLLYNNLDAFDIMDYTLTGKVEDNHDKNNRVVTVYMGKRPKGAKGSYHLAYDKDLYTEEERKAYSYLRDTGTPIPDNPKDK

[16] = biological target: T8, Apoptotic protease-activating factor 1 (Homo sapiens, UniProt O14727); assay type: functional
T8 sequence (O14727 whole entry): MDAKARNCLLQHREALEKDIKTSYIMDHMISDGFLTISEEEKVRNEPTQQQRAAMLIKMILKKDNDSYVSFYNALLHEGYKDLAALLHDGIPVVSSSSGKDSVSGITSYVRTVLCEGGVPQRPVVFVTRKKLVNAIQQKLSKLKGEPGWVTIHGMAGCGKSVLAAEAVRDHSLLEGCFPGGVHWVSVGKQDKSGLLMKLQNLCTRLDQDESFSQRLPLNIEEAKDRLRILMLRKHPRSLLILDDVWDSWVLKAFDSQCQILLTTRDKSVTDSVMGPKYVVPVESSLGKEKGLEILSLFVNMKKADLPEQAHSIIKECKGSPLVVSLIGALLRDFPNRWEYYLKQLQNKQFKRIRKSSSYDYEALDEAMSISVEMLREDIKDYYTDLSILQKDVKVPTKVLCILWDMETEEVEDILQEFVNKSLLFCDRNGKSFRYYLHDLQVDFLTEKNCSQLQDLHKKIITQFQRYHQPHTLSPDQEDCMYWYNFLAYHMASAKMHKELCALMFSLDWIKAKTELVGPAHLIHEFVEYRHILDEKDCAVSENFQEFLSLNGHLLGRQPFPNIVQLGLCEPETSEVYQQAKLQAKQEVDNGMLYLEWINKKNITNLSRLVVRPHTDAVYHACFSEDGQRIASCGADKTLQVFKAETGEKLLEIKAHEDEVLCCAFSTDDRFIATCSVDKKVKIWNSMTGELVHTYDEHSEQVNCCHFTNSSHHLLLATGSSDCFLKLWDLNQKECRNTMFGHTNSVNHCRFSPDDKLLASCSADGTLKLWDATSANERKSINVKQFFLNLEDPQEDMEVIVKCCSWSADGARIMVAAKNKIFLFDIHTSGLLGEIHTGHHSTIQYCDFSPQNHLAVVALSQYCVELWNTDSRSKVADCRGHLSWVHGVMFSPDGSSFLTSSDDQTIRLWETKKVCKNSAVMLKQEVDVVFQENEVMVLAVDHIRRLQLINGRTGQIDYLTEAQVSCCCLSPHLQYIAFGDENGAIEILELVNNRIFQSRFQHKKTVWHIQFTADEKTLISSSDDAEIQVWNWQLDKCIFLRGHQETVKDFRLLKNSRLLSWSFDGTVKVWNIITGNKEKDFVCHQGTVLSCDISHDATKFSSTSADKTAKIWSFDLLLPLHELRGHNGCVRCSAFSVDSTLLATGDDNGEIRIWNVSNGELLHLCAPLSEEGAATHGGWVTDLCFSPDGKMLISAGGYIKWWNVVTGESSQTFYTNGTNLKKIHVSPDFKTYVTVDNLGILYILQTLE

Chain of Hepatocyte nuclear factor 4-alpha (P41235 whole entry, the tested form may be a part): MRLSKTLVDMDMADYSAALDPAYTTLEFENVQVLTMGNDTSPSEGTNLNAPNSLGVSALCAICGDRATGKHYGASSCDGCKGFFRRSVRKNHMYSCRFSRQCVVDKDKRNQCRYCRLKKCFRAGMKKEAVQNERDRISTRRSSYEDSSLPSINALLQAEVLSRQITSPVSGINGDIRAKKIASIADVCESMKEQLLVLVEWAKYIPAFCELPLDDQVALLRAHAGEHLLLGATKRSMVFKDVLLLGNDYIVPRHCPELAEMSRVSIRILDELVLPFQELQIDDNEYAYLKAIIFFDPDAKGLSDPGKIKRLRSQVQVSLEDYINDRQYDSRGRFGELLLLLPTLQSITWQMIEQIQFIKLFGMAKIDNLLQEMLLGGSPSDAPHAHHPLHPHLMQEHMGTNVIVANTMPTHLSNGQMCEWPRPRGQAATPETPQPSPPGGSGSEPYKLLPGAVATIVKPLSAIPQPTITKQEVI
Chain of Galanin receptor type 3 (O60755 whole entry): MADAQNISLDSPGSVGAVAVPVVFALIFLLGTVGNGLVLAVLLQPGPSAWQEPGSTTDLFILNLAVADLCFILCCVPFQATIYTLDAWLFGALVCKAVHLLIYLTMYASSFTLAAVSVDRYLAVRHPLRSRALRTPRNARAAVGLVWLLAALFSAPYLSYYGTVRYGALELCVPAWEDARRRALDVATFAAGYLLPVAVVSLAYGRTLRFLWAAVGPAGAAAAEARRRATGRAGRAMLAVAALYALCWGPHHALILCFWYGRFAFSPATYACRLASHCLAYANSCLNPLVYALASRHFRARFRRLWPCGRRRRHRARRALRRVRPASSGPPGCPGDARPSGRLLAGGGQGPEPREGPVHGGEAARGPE
Chain of Paired box protein Pax-8 (Q06710 whole entry): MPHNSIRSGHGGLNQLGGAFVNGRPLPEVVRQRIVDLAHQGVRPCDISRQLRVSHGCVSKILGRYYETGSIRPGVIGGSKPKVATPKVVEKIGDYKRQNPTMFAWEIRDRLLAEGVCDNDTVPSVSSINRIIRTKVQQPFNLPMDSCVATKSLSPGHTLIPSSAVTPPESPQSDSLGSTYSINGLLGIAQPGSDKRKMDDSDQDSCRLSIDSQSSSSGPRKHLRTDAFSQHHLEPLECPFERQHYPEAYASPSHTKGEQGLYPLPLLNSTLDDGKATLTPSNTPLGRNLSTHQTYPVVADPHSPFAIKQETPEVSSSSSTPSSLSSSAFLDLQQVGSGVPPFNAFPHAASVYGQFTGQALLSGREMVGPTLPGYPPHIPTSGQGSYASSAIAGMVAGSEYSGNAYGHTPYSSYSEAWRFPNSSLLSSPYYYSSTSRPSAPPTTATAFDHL
Chain of Beta Lactamase (Q932Y6 whole entry, the tested form may be a part): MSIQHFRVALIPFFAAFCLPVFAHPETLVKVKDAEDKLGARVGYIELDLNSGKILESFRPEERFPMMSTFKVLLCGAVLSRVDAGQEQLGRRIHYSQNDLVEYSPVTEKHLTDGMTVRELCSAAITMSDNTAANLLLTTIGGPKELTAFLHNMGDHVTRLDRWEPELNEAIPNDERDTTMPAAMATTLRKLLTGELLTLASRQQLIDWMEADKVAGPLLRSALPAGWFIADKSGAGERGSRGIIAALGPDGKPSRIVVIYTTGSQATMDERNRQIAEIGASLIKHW

With `O=C(O)C1C2CCC(C2)C1C(=O)NCCc1ccccc1` (centres undefined) the IC50 (cells [1]) was > 29.9 µM (inactive) and the EC50 (cells [2]) was > 29.9 µM (inactive).
With `CS(=O)(=O)N1C[C@@H]2N[C@H](C1)[C@@H]2c1ccc(-c2ccccc2)cc1` the AC50 (A549) was 17.7 µM (active), the AC50 (Paired box protein Pax-8) was 4.42 µM (active) and the AC50 [3] was > 60 µM (inactive). The AC50 [4] was 9.14 µM (active).
For `CC(C)(C)CN1CCN(Cc2nc(-c3ccc(F)cc3)cs2)CC1CCO` (centres undefined), the IC50 (Galanin receptor type 3) was 2.83 µM (active) and the EC50 (cells [5]) was > 29.9 µM (inactive).
In the case of `Cc1cccnc1C(NC(=O)C1CCN(CCCc2ccccc2)CC1)c1ccc(Cl)cc1` (centres undefined), the AC50 (A549) is reported as 27.9 µM (active).
In the case of `Oc1ccccc1-c1nc(NCc2ccco2)c2ccccc2n1`, the EC50 [6] is reported as > 99 µM (inactive) and the EC50 [7] is reported as > 99 µM (inactive).
With `Cc1cccc(N2C(=O)Cc3ccccc3C2=O)c1` the IC50 [8] was > 100 µM (inactive), the IC50 [9] was 5.17 µM (active) and the AC50 (Caspase-6) was 22.7 µM (active).
With `N#C/C(=C/c1ccc(-c2ccc(S(N)(=O)=O)cc2)o1)c1nc2ccccc2s1` the IC50 (CHO) was 22.1 µM (inactive) and the IC50 (Beta Lactamase) was 5.09 µM (active).
For `N#Cc1ccccc1OCc1cn(CC(=O)c2ccc(O)cc2)nn1`, the IC50 [10] was 6.36 µM (active).
In the case of `CC(C)(C)NC(=O)C(c1ccc(C#N)cc1)n1c(=O)c(-c2ccco2)nc2ccccc21` (centres undefined), the IC50 [10] is reported as 1.47 µM (active).
For `CCC(CC)C(=O)Nc1ccc([N+](=O)[O-])cn1`, the IC50 (Galanin receptor type 3) was > 29.9 µM (inactive) and the EC50 (cells [5]) was > 29.9 µM (inactive).
With `C[C@@H]1CN([C@H](C)CO)S(=O)(=O)c2ccc(C#Cc3cccc(F)c3)cc2O[C@@H]1CN(C)C(=O)CN1CCOCC1` the AC50 [11] was 40.3 µM (active) and the AC50 [12] was 0.899 µM (active).
With `COc1ccc(N/C=C2/C(=O)N(c3cccc(C)n3)C(=O)c3ccccc32)c(OC)c1` the EC50 [13] was > 300 µM (not active), the EC50 [14] was 55.4 µM (inconclusive) and the EC50 [6] was > 99 µM (inactive). The EC50 [7] was 14.5 µM (active) and the EC50 [15] was 8.64 µM (active).
In the case of `CCCCC[n+]1ccn(C2=C([N-]S(=O)(=O)c3ccc(Br)cc3)C(=O)c3ccccc3C2=O)c1`, the EC50 (Streptokinase A) is reported as > 150 µM (not active) and the IC50 [16] is reported as 9.66 µM (active).
